{
  "source": "patent US20250319067A1",
  "about": "“Improved Pharmacokinetics of Tryptamine Prodrugs” (Reunion Neuroscience, Inc., priority 2023, published 2025)",
  "key": {"[1]": {"test_system": "cytochrome P450 (CYP) enzymes, FMO and MAO enzymes", "assay": "Recombinant human enzymes (Supersomes) substrate assay", "format": "in vitro ADME"}, "[2]": {"assay": "Prodrug cleavage in dog plasma", "format": "in vitro ADME", "conditions": "after 4 hours of incubation", "procedure": "(§1) Mean values from 3 replicate assays are reported. See the Supplemental Methods for additional details.\n(§2) Triplicate aliquots (50 μL) of each spiked plasma solution were immediately added to 200 μL of ice-cold methanol/acetonitrile solution (50:50 v/v) containing the internal standards to generate time zero samples. Spiked plasma solutions were incubated at 37° C. in an orbital shaker set to 75 rpm, and 50-μL samples were taken in triplicate after 30 minutes and 1, 2, and 4 hours of incubation. Each sample was immediately added to 200 μL ofice-cold methanol/acetonitrile solution containing the internal standard(s) to terminate the reaction. Samples were mixed by vortex and then stored at −80° C. until analysis.\n(§3) Calibration standards were prepared in plasma for each species and analyzed in batches by LC-MS/MS. Sample batches consisted of 3 replicates of a system suitability standard (containing the analyte and internal standard), the appropriate calibration standards in ascending order including a blank sample without internal standard, a zero sample (with internal standard), and at least 6 nonzero standards and the assay samples, followed by the 3 replicates of the system suitability sample."}, "monkey hepatocytes": {"test_system": "monkey hepatocytes", "assay": "Hepatocyte intrinsic clearance, monkey", "format": "in vitro ADME", "description": "(§4) In human, rat, rabbit, dog and monkey hepatocytes, the metabolite profile of RE104 was qualitatively similar across these species with only minor differences."}, "[3]": {"assay": "Prodrug cleavage in human plasma", "format": "in vitro ADME", "conditions": "human plasma, 37° C.", "procedure": "as §1, §2, §3"}, "[4]": {"assay": "Conversion in aqueous solution", "format": "physicochemical", "conditions": "as a function of pH"}, "male Wistar rats": {"test_system": "male Wistar rats", "assay": "Forced swim test (FST) in rats", "format": "in vivo, rat"}, "[5]": {"target": "human recombinant 5-HT2B receptors (Homo sapiens, UniProt P41595)", "sequence (P41595 whole entry)": "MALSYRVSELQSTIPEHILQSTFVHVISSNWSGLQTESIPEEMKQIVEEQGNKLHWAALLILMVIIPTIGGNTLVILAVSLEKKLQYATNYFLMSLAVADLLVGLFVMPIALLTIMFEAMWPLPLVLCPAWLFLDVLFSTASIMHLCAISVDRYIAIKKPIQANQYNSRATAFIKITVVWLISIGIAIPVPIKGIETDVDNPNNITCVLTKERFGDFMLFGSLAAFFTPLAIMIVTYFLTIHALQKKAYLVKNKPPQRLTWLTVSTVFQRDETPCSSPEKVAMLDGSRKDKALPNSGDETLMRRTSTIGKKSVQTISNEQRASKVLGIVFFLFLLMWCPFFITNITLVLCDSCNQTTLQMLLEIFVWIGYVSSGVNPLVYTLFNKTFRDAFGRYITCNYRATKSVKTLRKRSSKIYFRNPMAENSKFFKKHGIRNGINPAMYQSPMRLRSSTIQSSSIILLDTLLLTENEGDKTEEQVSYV", "assay": "5-HT2B agonist radioligand binding assay ([125I]DOI)", "protocol": "Increasing concentrations of RE104 were incubated with 0.2 nM [^125I]DOI in CHO cell cultures expressing human recombinant 5-HT2B receptors.\nRadioligand concentration was measured by scintillation counting; compound binding was calculated as percent inhibition of the binding of [^125I]DOI. In agonist activity assays, test concentrations of RE104 were incubated with HEK-293 cells expressing human recombinant 5-HT2A receptors; IP1 production was detected using homogeneous time-resolved fluorescence. Activation was calculated as a percentage of the response to the positive control (10 μM 5-HT).\nInhibition constants were calculated by using the Cheng-Prusoff equation Ki=IC50/(1+L/KD), where L=radioligand concentration and KD=radioligand affinity for the receptor (determined with a Scatchard plot). In the functional activity assay test concentrations of RE104 were 10 nM, 30 nM, 100 nM, 300 nM, 1 μM, 3 μM, 10 μM, and 30 μM. EC50 and IC50 values were determined by nonlinear regression analysis of the concentration-response curves generated with mean replicate values using Hill equation curve fitting."}, "[6]": {"assay": "Metabolite profiling in monkey plasma after SC RE104", "format": "in vivo, cynomolgus monkey", "conditions": "pooled plasma 0 to 12 hours post dose, SC 0.5 mg/kg RE104", "description": "Blood samples were centrifuged to obtain plasma."}, "[7]": {"assay": "Phase 1 FIH study: plasma pharmacokinetics (LC-MS/MS)", "format": "in vivo", "conditions": "human; for Cmax / Tmax / half-life: female, plasma; for half-life: read-out: t1/2, mean (converted)", "procedure": "The study was a double-blind, randomized, placebo-controlled Phase 1 single ascending dose study in up to 6 cohorts in healthy females. Eligibility was assessed during a screening period of up to 28 days prior to enrollment. For the treatment period, subjects were admitted to the clinical research unit (CRU) one day prior to the dosing (Day −1). On Day 1, all subjects will received the assigned SC dose of RE104 HCl or placebo in a fed state (after domiciling overnight and consuming a planned evening meal on Day −1 and morning meal on Day 1 while at the CRU). Subjects were allowed to select snacks from a planned menu from 4 hours following dosing. Subjects were discharged from the clinic on Day 2 (−24 hours post-dose) after all required study procedures were completed and if deemed medically fit. Subjects returned to the clinic on Day 10 (±2 days) for a follow up visit.\nThe concentrations of RE104 and isoprocin in plasma were determined using a validated Liquid chromatography tandem mass spectrometry (LC-MS/MS) assay."}, "[8]": {"assay": "Non-GLP single dose, dose range study in rats (MTD)", "conditions": "rat, in vivo, sc", "procedure": "Non-GLP single dose, dose range studies with RE104 HCl were performed in rats and dogs to explore toxicity and establish a maximum tolerated dose (MTD) by SC injection. The rat study explored dosing with two formulations, water for injection (WFI) at pH 3-4 and phosphate buffered saline (PBS) with a final formulation pH of 4.5-5. Single doses of 20 to 300 mg/kg formulated in WFI produced dose-dependent pharmacologically related systemic serotonergic clinical signs. Similarly, SC administration with doses of 25 to 225 mg/kg RE104 formulated in PBS caused clinical signs of SS around 1 hour with recovery by 24 hours.\nClinical signs were reversible by Recovery Day 13 (Study Day 14). Microscopic injection site pathology was seen following a single dose of 225 mg/kg. The MTD in the rat for RE104 in WFI was 150 mg/kg and in PBS was 75 mg/kg."}, "rabbit hepatocytes": {"test_system": "rabbit hepatocytes", "assay": "Hepatocyte intrinsic clearance, rabbit", "format": "in vitro ADME", "description": "as §4"}},
  "note": "Where two headings read alike, the source gives them in different places.",
  "data": [
    {"smiles": "CC(C)N(CCc1c[nH]c2cccc(OC(=O)CCCC(=O)O)c12)C(C)C", "note": "[RE104]", "values": [
      {"measurement": "substrate for cytochrome P450, FMO or MAO isoforms", "setting": "[1]", "value": "not a substrate"},
      {"measurement": "prodrug remaining", "setting": "[2]", "value": 39, "unit": "%"},
      {"measurement": "in vitro intrinsic clearance (CLint)", "setting": "monkey hepatocytes", "value": 1.14, "unit": "mL/hr/106 cells"},
      {"measurement": "completeness of conversion", "setting": "[3]", "value": "> 95", "unit": "%"},
      {"measurement": "time of conversion to 4-OH-DiPT", "setting": "[3]", "value": "< 30", "unit": "min"},
      {"measurement": "conversion in aqueous solution", "setting": "[4]", "value": "slow conversion"},
      {"measurement": "climbing as share of escape behaviors", "setting": "male Wistar rats; rat FST, day 28", "value": 45, "unit": "%"},
      {"measurement": "swimming as share of escape behaviors", "setting": "male Wistar rats; rat FST, day 28", "value": 55, "unit": "%"},
      {"measurement": "mean swimming time relative to vehicle", "setting": "male Wistar rats; rat FST, single 1 mg/kg dose", "value": "significantly increased"},
      {"measurement": "mean immobility time vs vehicle", "setting": "male Wistar rats; rat FST, single 1 mg/kg dose, day 7, 14, and 28", "value": "significant decrease"},
      {"measurement": "duration of distinctive serotonergic behaviors", "setting": "male Wistar rats; rat, dosing day, 1 mg/kg", "value": "approximately 3 hours"},
      {"measurement": "IC50", "setting": "[5]", "value": 740, "unit": "nM"},
      {"measurement": "Ki", "setting": "[5]; read-out: binding Ki at the 5-HT2B receptor, CHO cells", "value": 1800, "unit": "nM"},
      {"measurement": "share of the total peak area", "setting": "[6]", "value": 71.1, "unit": "%"},
      {"measurement": "Cmax", "setting": "[7]; RE104 dose 5.5 mg SC (n = 6)", "value": 173, "unit": "ng/mL"},
      {"measurement": "Tmax", "setting": "[7]; RE104 dose 5.5 mg SC (n = 6)", "value": 25.2, "unit": "min"},
      {"measurement": "half-life", "setting": "[7]; RE104 dose 5.5 mg SC (n = 6)", "value": 31.8, "unit": "min"},
      {"measurement": "Cmax", "setting": "[7]; RE104 dose 11 mg SC (n = 6)", "value": 527, "unit": "ng/mL"},
      {"measurement": "Tmax", "setting": "[7]; RE104 dose 11 mg SC (n = 6)", "value": 19.8, "unit": "min"},
      {"measurement": "half-life", "setting": "[7]; RE104 dose 11 mg SC (n = 6)", "value": 28.8, "unit": "min"},
      {"measurement": "Cmax", "setting": "[7]; RE104 dose 22 mg SC (n = 6)", "value": 788, "unit": "ng/mL"},
      {"measurement": "Tmax", "setting": "[7]; RE104 dose 22 mg SC (n = 6)", "value": 22.8, "unit": "min"},
      {"measurement": "half-life", "setting": "[7]; RE104 dose 22 mg SC (n = 6)", "value": 30, "unit": "min"},
      {"measurement": "Cmax", "setting": "[7]; RE104 dose 33 mg SC (n = 9)", "value": 1460, "unit": "ng/mL"},
      {"measurement": "Tmax", "setting": "[7]; RE104 dose 33 mg SC (n = 9)", "value": 15, "unit": "min"},
      {"measurement": "half-life", "setting": "[7]; RE104 dose 33 mg SC (n = 9)", "value": 25.8, "unit": "min"},
      {"measurement": "Cmax", "setting": "[7]; RE104 dose 38 mg SC (n = 6)", "value": 1250, "unit": "ng/mL"},
      {"measurement": "Tmax", "setting": "[7]; RE104 dose 38 mg SC (n = 6)", "value": 22.8, "unit": "min"},
      {"measurement": "half-life", "setting": "[7]; RE104 dose 38 mg SC (n = 6)", "value": 38.4, "unit": "min"},
      {"measurement": "Cmax", "setting": "[7]; RE104 dose 44 mg SC (n = 3)", "value": 1800, "unit": "ng/mL"},
      {"measurement": "Tmax", "setting": "[7]; RE104 dose 44 mg SC (n = 3)", "value": 25.2, "unit": "min"},
      {"measurement": "half-life", "setting": "[7]; RE104 dose 44 mg SC (n = 3)", "value": 31.2, "unit": "min"},
      {"measurement": "time after administration by which not detectable in plasma", "setting": "[7]; any dose", "value": "≤ 5", "unit": "h"},
      {"measurement": "MTD at 14 days", "setting": "[8]; formulated in PBS", "value": 75, "unit": "mg/kg"},
      {"measurement": "MTD at 14 days", "setting": "[8]; formulated in WFI", "value": 150, "unit": "mg/kg"},
      {"measurement": "in vitro intrinsic clearance (CLint)", "setting": "rabbit hepatocytes", "value": 4.88, "unit": "mL/hr/106 cells"}
    ]}
  ]
}
